The values that follow come from ChEMBL document CHEMBL4118149, “1,2,4-Triazolsulfone: A novel isosteric replacement of acylsulfonamides in the context of NaV1.7 inhibition” (Bioorg Med Chem Lett, 2018).

The pKa is the negative logarithm of the acid dissociation constant. The low end stands for a group that gives up its proton readily, the high end for a group that holds its proton tightly.

A short description of series [1]: Oral bioavailability in Sprague-Dawley rat at 10 mg/kg. The format is ADME, organism-based. The settings on record: in vivo.
A short description of series [2]: Volume of distribution at steady state in Sprague-Dawley rat at 0.5 mg/kg, iv. Conditions: in vivo, read-out: Vdss. The series is classed as ADME, organism-based.
Series [3] in a line: Kinetic solubility of the compound in simulated intestinal fluid. The format is physicochemical. The settings on record: simulated gi fluid.
The nature of series [4]: Dissociation constant, pKa of the compound by capillary electrophoresis method. The format is physicochemical.

Turning to `O=S(=O)(CC1CC1)c1nnc(-c2cc(F)c(-c3cnc(Oc4ccccc4C(F)(F)F)c(Cl)c3)cc2F)[nH]1`, the bioavailability in series [1] was 140%. Further, the Vd in series [2] was 0.37 L/kg. This compound also came in with a Kinetic solubility in series [3] of 101 µM.
In the case of `CC(C)COc1ncc(-c2cc(F)c(-c3nnc(S(=O)(=O)C4CCC4)[nH]3)cc2F)cc1Cl`, the Vd in series [2] was found to be 0.7 L/kg.
The compound `CC(=O)NS(=O)(=O)c1cc(F)c(COc2ccc(Cl)c(Cl)c2)cc1F` registered a pKa in series [4] of 3.7.
Still for that read-out and setting: in the case of `CS(=O)(=O)NC(=O)c1cc(F)c(COc2ccc(Cl)c(Cl)c2)cc1F` it was 3.1.
Same read-out and setting: in the case of `CS(=O)(=O)c1nnc(-c2cc(F)c(COc3ccc(Cl)c(Cl)c3)cc2F)[nH]1` it was 4.8; in that of `O=c1[nH]c(-c2cc(F)c(COc3ccc(Cl)c(Cl)c3)cc2F)no1`, 4.3; in that of `O=C(O)c1cc(F)c(COc2ccc(Cl)c(Cl)c2)cc1F`, 3.1.
As to `O=C(O)CNC(=O)c1cc(F)c(COc2ccc(Cl)c(Cl)c2)cc1F`, in series [4], the pKa worked out at 3.4.
